# Patent US9408386B2, “Use of succinate dehydrogenase inhibitors (SDHIs) for controlling wood diseases in grape” (BAYER CROPSCIENCE AG, priority 2012, dated 2016)
# Experiments:
# Format in all cases: cell-based
# [1] = system: Formitiporia mediteranea; test: In vitro mycelium growth test on malt agar medium
# Protocol: (§1) This test is carried out on representative fungi found in grape plants showing “Esca” Symptoms
# (§2) Formulated products are diluted in sterilized dematerialized water at the desired concentration and added to malt agar medium. Fluopyram and penflufen were used as a […] formulation formulation containing 100 g/l active ingredient (SC 100), Bixafen as a emulsifiable concentrate formulation containing 200 g/l active ingredient (EC 200), and tebuconazole as a oil in water emulsion formulation containing 250 g/l active ingredient (EW 250). The medium containing the product to be tested is poured in 90 mm diameter Petri dishes. Each dish is then inoculated using a 5 mm diameter mycelium plug taken, using a cork borer, from the active growing edge of a colony.
# (§3) Inoculated Petri dishes are then incubated at 22° C. with a photoperiod of 12 h. The incubation period corresponds to the time required for the fungus to invade the entire surface of the growth medium. At that time, mycelium growth is evaluated by calculating the mean of two perpendicular measure of the colony diameter. A percentage of efficacy is then calculated (Abbott formula).
# (§4) The concentration of 50 ppm corresponds approximately to about 50 g/ha when an application amount of 1000 l water per hectare is used.
# [2] = system: Phaeoacremonium aleophilum; test: In vitro mycelium growth test on malt agar medium; details: 50 ppm in malt agar, 22° C., colony diameter, Abbott formula
# Protocol: as §1, §2, §3, §4
# [3] = system: Phaemoniella chlamydospora; test: In vitro mycelium growth test on malt agar medium
# Protocol: as §1, §2, §3, §4
# [4] = system: Eutypa lata; test: In vitro mycelium growth test on malt agar medium; details: 50 ppm in malt agar, 22° C., colony diameter, Abbott formula
# Protocol: as §1, §2, §3, §4
# [5] = system: Botryosphaeria dothidea; test: In vitro mycelium growth test on malt agar medium; details: 50 ppm in malt agar, 22° C., colony diameter, Abbott formula
# Protocol: as §1, §2, §3, §4
# [6] = system: Botryosphaeria obtusa; test: In vitro mycelium growth test on malt agar medium; details: 50 ppm in malt agar, 22° C., colony diameter, Abbott formula
# Protocol: as §1, §2, §3, §4
# [7] = system: several fungi belonging to the community usually found in plants showing Esca symptoms; test: In vitro mycelium growth test, summary over the Esca fungi community; details: at 50 ppm
# Protocol: as §1, §2, §3, §4
# [8] = Formitiporia mediteranea, 50 ppm in malt agar, 22° C., colony diameter, Abbott formula
# [9] = Phaemoniella chlamydospora, 50 ppm in malt agar, 22° C., colony diameter, Abbott formula
Compound,"In Vitro Efficacy Mycellium** [1, 8] [%]",In Vitro Efficacy Mycellium** [2] [%],"In Vitro Efficacy Mycellium** [3, 9] [%]",In Vitro Efficacy Mycellium** [4] [%],In Vitro Efficacy Mycellium** [5] [%],In Vitro Efficacy Mycellium** [6] [%],reduction of several fungi of the Esca community [7],In Vitro Efficacy Mycellium** ([1]; 50 ppm) [%],In Vitro Efficacy Mycellium** ([3]; 50 ppm) [%]
"Cn1cc(C(=O)Nc2ccc(F)cc2-c2ccc(Cl)c(Cl)c2)c(C(F)F)n1 [Bixafen, bixafen]",100,69,100,100,86,85,significant reduction,–,–
"O=C(NCCc1ncc(C(F)(F)F)cc1Cl)c1ccccc1C(F)(F)F [Fluopyram, N-[2-[3-chloro-5-(trifluoromethyl)-2-pyridinyl]ethyl]-2-(trifluoromethyl)benzamide]",–,35,–,61,55,65,significant reduction,10,59
"Cc1nn(C)c(F)c1C(=O)Nc1ccccc1C(C)CC(C)C (stereo not drawn) [Penflufen, penflufen]",100,62,75,83,64,65,significant reduction,–,–
"CC(C)(C)C(O)(CCc1ccc(Cl)cc1)Cn1cncn1 (stereo not drawn) [Tebuconazole, tebuconazole]",–,100,–,100,100,100,–,100,100
